Reference: patent US6479487B1, “6, 9-disubstituted 2-[trans-(4-aminocyclohexyl)amino] purines” (Aventis Pharmaceuticals Inc., priority 1998, dated 2002)
Values joined by “and” are separate entries in the source; they are usually repeats but may differ in a detail not shown here. Equal values may be shown once. Where a name gives a salt, the structure may show the parent alone. Read-outs that look alike come from different tables or passages of the source.

Legend:
[1] = molecular target: T1, cdk2/cyclin E (Homo sapiens, UniProt P24941); assay: Cyclin-Dependent Kinase 2 Assay (cdk2/cyclin E, GST-Rb substrate); type: biochemical; details: recombinant cdk2/cyclin E, 10 μM ATP, 30 min at 30° C., several values in a cell = separate determinations, read-out: CDK-2 Inhibition IC50
T1 construct: made in house; host or cells: insect cells (baculovirus co-infection)
Protocol: Substrate: GST-Rb as described above for cdk4/cyclin D1
Assay conditions for cdk2/cyclin E were identical to those for cdk4/cyclin D1 including the substrate. The concentration of recombinant cdk2/cyclin E in the assay was 0.1 μg per 100 μl assay. Incubation was for 30 min at 30° C.

[2] = molecular target: T2, cdk4/cyclin D1 (Homo sapiens, UniProt P11802); assay: Cyclin-dependent Kinase 4 Assay (cdk4/cyclin D1, GST-Rb substrate); type: biochemical; details: cdk4/cyclin D1 insect cell lysate, 10 μM ATP, 30 min at 37° C., several values = separate determinations, read-out: CDK4 Inhibition IC50
T2 construct: made in house; host or cells: Sf9 insect cells (Bac-to-Bac baculovirus, pFastBac)
T2 sequence (P11802 whole entry): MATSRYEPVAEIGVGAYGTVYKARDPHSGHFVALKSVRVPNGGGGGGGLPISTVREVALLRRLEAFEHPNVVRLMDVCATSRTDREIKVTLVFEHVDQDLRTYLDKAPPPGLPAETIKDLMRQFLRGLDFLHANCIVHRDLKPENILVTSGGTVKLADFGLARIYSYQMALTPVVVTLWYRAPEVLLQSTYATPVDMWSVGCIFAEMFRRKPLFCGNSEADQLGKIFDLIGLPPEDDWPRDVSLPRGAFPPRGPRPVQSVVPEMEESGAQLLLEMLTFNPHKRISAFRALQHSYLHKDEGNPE
T2 sequence (P24385 whole entry partner): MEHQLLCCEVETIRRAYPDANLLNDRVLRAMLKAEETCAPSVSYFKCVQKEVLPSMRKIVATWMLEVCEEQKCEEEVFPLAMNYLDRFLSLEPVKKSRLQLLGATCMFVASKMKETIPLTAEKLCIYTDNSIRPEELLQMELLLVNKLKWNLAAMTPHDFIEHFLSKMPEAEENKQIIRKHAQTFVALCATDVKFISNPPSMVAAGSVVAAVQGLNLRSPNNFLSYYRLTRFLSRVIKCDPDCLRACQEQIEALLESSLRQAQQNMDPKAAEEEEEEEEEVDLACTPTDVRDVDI
Protocol: The IC50 values for cdk4 inhibition were by the following method:
The transformed bacteria were grown overnight to saturation, then diluted in YT broth and incubated at 37° C. for 2 h. The protein was induced by incubation with 0.1 mM isopropylthioglycoside for 3 h. Following sedimentation by centrifugation, the cells were lysed by sonication in STE buffer ([…] NaCl, 10 mM Tris, pH 8.0, 1 mM EDTA) containing 10% sarkosyl. Particulate matter was removed by centrifugation and the lysate was incubated with glutathione-Sepharose at 4° C. The beads were washed with kinase buffer and then quantitation of Coomassie blue-stained proteins separated by SDS-PAGE was performed using a protein standard of known concentration.
The cDNA for human cyclin D1 was cloned by RT PCR using […] from MCF-7 cells. […] Bacmid DNA was used to transfect Sf9 insect cells to produce recombinant virus. Following plaque purification of the virus, the viral preparations were amplified until high titer stocks were acheived.
Lysates were prepared by lysis of Sf9 cells coinfected with cdk4 and cyclin D1 in 50 mM HEPES, pH 7.5, 10 mM MgCl2, 1 mM DTT, 0.1 mM phenylmethylsulfonyl fluoride, 5 μg/ml aprotinin, and 5 μg/ml leupeptin using a PARR bomb under 500 p.s.i nitrogen pressure for 5 min at 4° C. Insoluble material was sedimented at 10,000×g for 20 min at 4° C. Glycerol was added to the supernatant to 10% and stored at −80° C. in aliquots.
Pre-wet Millipore Multiscreen 96-well filter plates (0.65 μm Durapore filters) with 200 μl kinase buffer (50 mM HEPES, pH 7.5, 10 mM MgCl2, 1 mM EGTA). GST-Rb (0.5 μg) bound to glutathione-Sepharose beads is added in 50 μl per well and the solution removed by application of vacuum. […] Add 0.1 μg cdk4/cyclin D1 (insect cell lysate) to initiate assay. Incubate 30 min at 37° C. Terminate reaction by filtration on Millipore Vacuum Manifold. Wash four times with TNEN (20 mM Tris, pH 8.0, 100 mM Na Cl, 1 mM EDTA, 0.5% nonidet P-40). After drying the plates at room temperature, the filter plates were placed in adapter plates (Packard) and 40 μl of Microscint-O® (Packard) was added to each well. Top Seal A film was used to cover the plates before counting in a Top Count Scintillation Counter.

[3] = system: MDA-MB-231; assay: In vitro tumor cell proliferation, MDA-MB-231; type: cell-based, human; details: sulforhodamine B or CyQUANT assay, many values given with an undefined *, read-out: In vitro Tumor Cell Proliferation (IC50, μM) Breast MDA-MB-231
Protocol: (§1) The proliferation of tumor cells was measured using a sulforhodamine B assay as described in Skehan, P., et al., J. Natl. Cancer Inst. […] Tumor cells were harvested with trypsin-EDTA, cells that excluded trypan blue were counted, added to 96-well plates and incubated overnight at 37° C. Drug was added to the wells following dilution in culture medium. Three days later, the medium was removed and replenished with medium containing fresh drug and incubated an additional 4 days. The cells were then fixed with 0.1 ml 10% trichloroacetic acid for 60 min at 4° C. The plates were rinsed five times with tap water, air-dried and stained for 30 min with 0.4% sulforhodamine B in 1% acetic acid and air-dried.
(§2) Alternatively, the CyQUANT cell proliferation assay was used to quantitate cell proliferation.
(§3) Alternatively, the CyQUANT cell proliferation assay was used to quantify tumor cell proliferation. Tumor cells were harvested with trypsin-EDTA, cells that excluded trypan blue were counted, added to 96-well plates and incubated overnight at 37° C. Drug was added to the wells following dilution in culture medium. Three days later the medium was removed and the plates frozen at −80° C. for at least 30 minutes.
MDA-MB-23 1 is a human breast adenocarcinoma, hormone-independent (HTB 26);

[4] = system: MDA-MB-435; assay: In vitro tumor cell proliferation, MDA-MB-435; type: cell-based; details: values given with an undefined *, read-out: In vitro Tumor Cell Proliferation (IC50, μM) Breast MDA-MB-435
Protocol: as §1, §2, §3

[5] = system: HT-29; assay: In vitro tumor cell proliferation, HT-29; type: cell-based, human; details: many values given with an undefined *, read-out: In vitro Tumor Cell Proliferation (IC50, μM) Colon HT-29
Protocol: as §1, §2, §3
HT-29 is a human colon adenocarcinoma, moderately well-differentiated grade II (HTB 38);

[6] = system: Colo-205; assay: In vitro tumor cell proliferation, Colo-205; type: cell-based; details: values given with an undefined *, read-out: In vitro Tumor Cell Proliferation (IC50, μM) Colon Colo-205
Protocol: as §1, §2, §3

[7] = system: A549; assay: In vitro tumor cell proliferation, A549; type: cell-based, human; details: many values given with an undefined *, read-out: In vitro Tumor Cell Proliferation (IC50, μM) Lung A549
Protocol: as §1, §2, §3

[8] = system: DMS-114; assay: In vitro tumor cell proliferation, DMS-114; type: cell-based, human; details: many values given with an undefined *, read-out: In vitro Tumor Cell Proliferation (IC50, μM) Lung DMS-114
Protocol: DMS-1 14: human small cell lung carcinoma;
as §1, §2, §3

[9] = system: PC-3; assay: In vitro tumor cell proliferation, PC-3; type: cell-based, human; details: many values given with an undefined *, read-out: In vitro Tumor Cell Proliferation (IC50, μM) Prostate PC-3
Protocol: as §1, §2, §3

[10] = system: DU145; assay: In vitro tumor cell proliferation, DU145; type: cell-based, human; details: many values given with an undefined *, read-out: In vitro Tumor Cell Proliferation (IC50, μM) Prostate DU145
Protocol: as §1, §2, §3

[11] = Homo sapiens, MDA-MB-231, MDA-MB-231
[12] = Homo sapiens, MDA-MB-435, MDA-MB-435
[13] = Homo sapiens, COLO 205, Colo-205

Row | SMILES | IC50 [1] | IC50 [2] | IC50 [3, 11] [µM] | IC50 ([3]; MDA-MB-231, dihydrochloride) [µM] | IC50 [4, 12] [µM] | IC50 ([4]; MDA-MB-435, dihydrochloride) [µM] | IC50 ([5]; HT-29, dihydrochloride) [µM] | IC50 ([5]; Homo sapiens, HT-29, HT-29) [µM] | IC50 ([6]; Colo-205, dihydrochloride) [µM] | IC50 [6, 13] [µM] | IC50 ([7]; A549, dihydrochloride) [µM] | IC50 ([7]; Homo sapiens, A549, A549) [µM] | IC50 ([8]; Homo sapiens, DMS-114, DMS-114) [µM] | IC50 ([9]; Homo sapiens, PC-3, PC-3) [µM] | IC50 ([10]; Homo sapiens, DU-145, DU145) [µM] | IC50 ([3]; MDA-MB-231) [µM] | IC50 ([4]; MDA-MB-435) [µM] | IC50 ([6]; Colo-205) [µM] | IC50 ([7]; A549) [µM] | IC50 ([10]; DU145) [µM] | also measured
1 | COc1cccc(CCNc2nc(N[C@H]3CC[C@H](N)CC3)nc3c2ncn3C2CCCC2)c1 [Example 27, 2-[Trans-(4-aminocyclohexyl)amino]-6-[2-(3-methoxyphenyl)ethylamino]-9-cyclopentylpurine dihydrochloride] | 0.13 µM | 1.4 µM | 10 | 6 | 9.3 | 7.2 | 5.2 | 3.8 | 4.6 | 4.9 | 1.6 | 3.1 | 2.1 | 2.6 |  |  |  |  |  |  | IC50 ([9]; PC-3, dihydrochloride): 3 µM
2 | N[C@H]1CC[C@H](Nc2nc(Nc3ccccc3)c3ncn(C4CCCC4)c3n2)CC1 [Example 32, 2-[Trans-(4-aminocyclohexyl)amino]-6-(phenylamino)-9-cyclopentylpurine dihydrochloride] | 0.054 µM and 0.025 µM and 0.027 µM and 0.014 µM | 1.3 µM and 1.6 µM | 0.85 | 0.68 | 1.59 | 1.39 | 1.1 | 1 | 1.2 | 0.82 | 0.68 | 0.37 | 0.61 |  | 0.39 |  |  |  |  |  | IC50 ([8]; DMS-114, dihydrochloride): 0.51 µM; IC50 ([10]; DU145, dihydrochloride): 0.64 µM
3 | N[C@H]1CC[C@H](Nc2nc(NC3CCN(Cc4ccccc4Cl)CC3)c3ncn(C4CCCC4)c3n2)CC1 [Example 43, 2-[Trans-(4-aminocyclohexyl)amino]-6-[4-(1-(2-chlorobenzyl))piperidinylamino]-9-cyclopentylpurine] | 0.15 µM and 0.2 µM | 3.9 µM and 7.7 µM | 0.37 |  | 0.33 |  |  |  |  | 0.28 |  | 0.25 | 0.43 |  | 0.3 | 0.43 | 0.57 | 0.23 | 0.23 | 0.32 | IC50 ([8]; DMS-114): 0.41 µM
4 | N[C@H]1CC[C@H](Nc2nc(NC3CCN(CC4CC4)CC3)c3ncn(C4CCCC4)c3n2)CC1 [Example 52, 2-[Trans-(4-aminocyclohexyl)amino]-6-[4-(1-cyclopropylmethyl)piperidinylamino]-9-cyclopentylpurine] | 0.19 µM | 0.74 µM and 1.4 µM and 1.1 µM | 1 |  | 2.1 |  |  | 1.6 |  | 1.5 |  | 0.57 |  | 1.7 | 1.4 | 1.2 | 2.4 | 1.1 | 0.68 | 1.5 | IC50 ([5]; HT-29): 2 µM; IC50 ([9]; PC-3): 2.1 µM
